Experimental data taken from patent publication US20250154124A1, “PROCESSES FOR THE PREPARATION OF N-(1-METHYLCYCLOPROPYL)-2-(3-PYRIDINYL)-2H-INDAZOLE-4-CARBOXAMIDE AND INTERMEDIATES THEREOF” (FMC CORPORATION, priority 2022, published 2025).

Legend:
[1] = Stable polymorph form screen (slurry experiments); assay type: physicochemical; details: between 2° C. and 73° C.
Procedure: Slurry experiments were conducted to identify the stable form at various conditions. In these experiments, saturated solutions in various solvents containing excess undissolved solids (starting with Form A+minor Form B) were stirred for extended durations. Slurries at room temperature (RT) and 2-8° C. were typically conducted for approximately 2 weeks, while slurries at 72-73° C. were stirred for a shorter duration (1 day) to minimize the potential for decomposition. […] The results are shown in the table 12 where the time and temperatures are approximate.

[2] = Form A and Form B interconversion (competitive) slurries; assay type: physicochemical; details: between 2° C. and 72° C.
Procedure: Relative thermodynamic stabilities of anhydrous/non-solvated Forms A and B were studied at 2-8° C., room temperature (RT) and at 71-72° C. via interconversion (competitive) slurries. In these slurries, a given solvent system was pre-saturated with compound 092 (Form A+minor Form B) at the stated temperature, and a portion of the liquid phase was filtered into a mixture of solids containing relatively equal amounts of Form A and Form B. Interconversion slurries at 2-8° C. and RT were allowed to stir for 22 days, while slurries at 71-72° C. stirred for shorter duration (2-4 days). […] The results are reported in table 13 below where: liquid phase for each slurry was pre-saturated using as-received Form A+minor Form B; solvent ratios are v/v; water activity values were calculated using UNIFAC calculator at RT; and times and temperatures are approximate.

relative stability of polymorph forms (slurry screen) [1]: more stable than Form B | relative thermodynamic stability of Forms A and B (competitive slurries) [2]: thermodynamically stable form
SMILES: CC1(NC(=O)c2cccc3nn(-c4cccnc4)cc23)CC1 [Form A, N-(1-methylcyclopropyl)-2-(3-pyridinyl)-2H-indazole 4-carboxamide]
